ChEMBL document CHEMBL1127403, “L-N6-(1-iminoethyl)lysine: a selective inhibitor of inducible nitric oxide synthase” (J Med Chem, 1994)

Assays:
Nitric oxide synthase 1 = Nitric oxide synthase 1 (Rattus norvegicus, UniProt P29476); experiment: Tested for inhibition of rat brain […] nitric oxide synthase
[1] = target: T1, Nitric oxide synthase, inducible (Mus musculus, UniProt P29477); experiment: Tested for inhibition of mouse inducible nitric oxide synthase
T1 sequence (P29477 whole entry): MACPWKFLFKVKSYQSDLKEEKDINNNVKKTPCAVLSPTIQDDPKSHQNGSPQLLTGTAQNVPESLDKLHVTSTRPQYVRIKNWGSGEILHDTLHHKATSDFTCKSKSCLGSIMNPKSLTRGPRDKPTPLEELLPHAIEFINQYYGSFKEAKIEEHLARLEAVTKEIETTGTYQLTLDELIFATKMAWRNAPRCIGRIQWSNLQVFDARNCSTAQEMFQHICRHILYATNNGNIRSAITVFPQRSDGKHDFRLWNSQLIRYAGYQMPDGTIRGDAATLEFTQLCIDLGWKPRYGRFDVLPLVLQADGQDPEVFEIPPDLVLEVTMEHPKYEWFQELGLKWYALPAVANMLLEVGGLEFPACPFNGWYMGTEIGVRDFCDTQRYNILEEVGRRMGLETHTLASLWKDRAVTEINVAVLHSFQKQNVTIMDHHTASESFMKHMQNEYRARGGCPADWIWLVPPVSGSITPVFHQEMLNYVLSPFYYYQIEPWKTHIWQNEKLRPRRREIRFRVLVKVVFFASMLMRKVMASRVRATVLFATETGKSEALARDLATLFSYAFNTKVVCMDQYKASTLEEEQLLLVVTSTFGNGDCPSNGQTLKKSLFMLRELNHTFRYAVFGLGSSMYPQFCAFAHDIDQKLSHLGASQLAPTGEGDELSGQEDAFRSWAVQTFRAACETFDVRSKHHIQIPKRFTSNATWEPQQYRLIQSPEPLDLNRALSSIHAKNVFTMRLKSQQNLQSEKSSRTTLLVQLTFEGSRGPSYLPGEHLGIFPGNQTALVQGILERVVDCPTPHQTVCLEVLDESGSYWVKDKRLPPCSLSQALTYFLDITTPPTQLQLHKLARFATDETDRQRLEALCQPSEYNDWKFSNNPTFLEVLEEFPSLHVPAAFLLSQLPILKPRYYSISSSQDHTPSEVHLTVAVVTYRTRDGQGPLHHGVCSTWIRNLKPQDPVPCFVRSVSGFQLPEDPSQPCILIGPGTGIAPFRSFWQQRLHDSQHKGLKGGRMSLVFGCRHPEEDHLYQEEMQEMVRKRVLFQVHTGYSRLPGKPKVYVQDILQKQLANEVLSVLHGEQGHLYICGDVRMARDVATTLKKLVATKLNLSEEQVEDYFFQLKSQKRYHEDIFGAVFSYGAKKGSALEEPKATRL

[2] = Selectivity is the ratio of IC50 of mouse inducible NOS and Rat brain constitutive NOS

Sequence of Nitric oxide synthase 1 (P29476 whole entry): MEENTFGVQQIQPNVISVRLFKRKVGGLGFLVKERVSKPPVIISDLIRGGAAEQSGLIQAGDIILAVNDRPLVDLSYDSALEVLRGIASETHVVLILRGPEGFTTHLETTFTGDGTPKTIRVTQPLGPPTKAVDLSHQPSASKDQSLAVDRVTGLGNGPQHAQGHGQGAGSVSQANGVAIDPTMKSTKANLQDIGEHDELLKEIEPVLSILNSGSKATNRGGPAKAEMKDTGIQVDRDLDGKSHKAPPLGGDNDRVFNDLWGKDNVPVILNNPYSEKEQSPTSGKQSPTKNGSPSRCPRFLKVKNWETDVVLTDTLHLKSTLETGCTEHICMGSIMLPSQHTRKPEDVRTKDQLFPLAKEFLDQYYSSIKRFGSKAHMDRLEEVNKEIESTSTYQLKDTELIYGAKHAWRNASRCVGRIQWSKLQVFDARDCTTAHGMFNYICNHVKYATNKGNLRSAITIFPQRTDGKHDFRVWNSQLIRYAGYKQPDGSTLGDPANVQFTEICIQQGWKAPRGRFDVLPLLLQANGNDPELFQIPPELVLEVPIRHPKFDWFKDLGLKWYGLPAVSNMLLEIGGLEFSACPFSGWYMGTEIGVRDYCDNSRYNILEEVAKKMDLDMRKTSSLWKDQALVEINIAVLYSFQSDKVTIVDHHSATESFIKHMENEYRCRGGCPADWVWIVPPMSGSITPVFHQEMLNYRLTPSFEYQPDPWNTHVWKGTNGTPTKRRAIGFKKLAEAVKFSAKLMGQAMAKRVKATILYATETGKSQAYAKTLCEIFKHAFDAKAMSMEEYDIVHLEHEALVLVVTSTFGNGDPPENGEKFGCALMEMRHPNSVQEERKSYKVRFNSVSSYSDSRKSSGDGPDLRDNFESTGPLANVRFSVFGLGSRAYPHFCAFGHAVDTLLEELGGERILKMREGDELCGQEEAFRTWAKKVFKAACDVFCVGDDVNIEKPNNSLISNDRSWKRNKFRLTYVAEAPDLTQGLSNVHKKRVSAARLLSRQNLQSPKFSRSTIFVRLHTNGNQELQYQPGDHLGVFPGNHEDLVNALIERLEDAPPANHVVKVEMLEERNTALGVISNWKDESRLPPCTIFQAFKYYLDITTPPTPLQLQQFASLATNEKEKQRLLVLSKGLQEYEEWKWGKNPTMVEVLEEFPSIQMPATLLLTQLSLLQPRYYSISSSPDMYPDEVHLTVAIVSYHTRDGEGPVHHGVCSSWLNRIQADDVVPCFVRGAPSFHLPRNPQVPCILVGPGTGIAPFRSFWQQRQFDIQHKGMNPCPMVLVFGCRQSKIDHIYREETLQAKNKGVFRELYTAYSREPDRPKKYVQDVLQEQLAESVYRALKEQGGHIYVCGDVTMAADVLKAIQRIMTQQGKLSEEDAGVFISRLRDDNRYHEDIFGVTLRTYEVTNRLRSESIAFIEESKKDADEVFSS

CC(=N)NCCCC[C@@H](N)C(=O)O
IC50 (Nitric oxide synthase 1): 2800 µM | IC50 [1]: 336 µM | Selectivity [2]: 8

CC(=N)NCCC[C@H](N)C(=O)O [L-NIO]
IC50 [1]: 3.9 µM

N=C(NCCC[C@H](N)C(=O)O)N[N+](=O)[O-] [NITROARGININE]
IC50 [1]: 0.5 µM

CC(=N)NCCCC[C@H](N)C(=O)O [L-NIL]
IC50 (Nitric oxide synthase 1): 92 µM | IC50 [1]: 3.3 µM | Selectivity [2]: 28

CC(=N)NCCCCCC(N)C(=O)O (racemic)
IC50 (Nitric oxide synthase 1): 808 µM | IC50 [1]: 73 µM | Selectivity [2]: 11
